# Data taken from article PMC9854251 (Biochemistry, 2022).
# Several values for one entry are separate records, joined by “and”; a condition that tells them apart may be missing. Identical values can stand only once.
# Assays:
# hHINT2 R99Q [1] = target: T1, hHINT2 R99Q (Homo sapiens, UniProt Q9BX68, R99Q); assay: Isothermal titration calorimetry, hHINT2 R99Q; type: binding
# hHINT2 WT [2] = target: T2, hHINT2 WT (Homo sapiens, UniProt Q9BX68); assay: Isothermal titration calorimetry, hHINT2 WT; type: binding
# hHINT1 WT [3] = details: ITC; cited from earlier work
# hHINT2 R99Q [4] = target: T1, hHINT2 R99Q; assay: Stopped-flow burst-phase adenylation kinetics, hHINT2 R99Q; type: biochemical
# hHINT2 R99Q [5] = target: T1, hHINT2 R99Q; assay: Steady-state kinetics assay; type: biochemical; details: steady-state 25 °C
# hHINT1 = hHINT1 (Homo sapiens, UniProt P49773); assay: Time course simulation; type: biochemical
# hHINT2 = hHINT2 (Homo sapiens, UniProt Q9BX68); assay: Time course simulation; type: biochemical
# hHINT1 WT [6] = details: steady-state 25 °C, cited from earlier work
# hHINT2 R99A [7] = target: T3, hHINT2 R99A (Homo sapiens, UniProt Q9BX68, R99A); assay: Steady-state kinetics assay; type: biochemical
# hHINT1 WT [8] = details: cited from earlier work
# hHINT2 WT [9] = target: T2, hHINT2 WT; assay: Stopped-flow burst-phase adenylation kinetics, hHINT2 WT; type: biochemical
# hHINT1 Q62A [10] = target: T4, hHINT1 Q62A (Homo sapiens, UniProt P49773, Q62A); assay: Steady-state kinetics assay; type: biochemical
# hHINT2 R99A [11] = target: T3, hHINT2 R99A; assay: Stopped-flow burst-phase adenylation kinetics, hHINT2 R99A; type: biochemical
# hHINT1 Q62R [12] = target: T5, hHINT1 Q62R (Homo sapiens, UniProt P49773, Q62R); assay: Stopped-flow burst-phase adenylation kinetics, hHINT1 Q62R; type: biochemical
# hHINT1 Q62R [13] = target: T5, hHINT1 Q62R; assay: Steady-state kinetics assay; type: biochemical; details: steady-state 25 °C
# hHINT1 Q62A [14] = target: T4, hHINT1 Q62A; assay: Stopped-flow burst-phase adenylation kinetics, hHINT1 Q62A; type: biochemical
# [15] = pH 7.2, read-out: k1, E+TpAd ⇆ E•TpAd
# [16] = pH 7.2, read-out: k−1, E+TpAd ⇆ E•TpAd
# [17] = time course simulation, 4.3 °C, hHINT1
# [18] = time course simulation, 4.3 °C, hHINT1, k4 and k5 can be interchanged without altering the fit
# [19] = time course simulation, 4.3 °C, hHINT2
# [20] = time course simulation, 4.3 °C, hHINT2, k4 and k5 can be interchanged without altering the fit
# Chain of hHINT2 (Q9BX68 37-163 limits assumed): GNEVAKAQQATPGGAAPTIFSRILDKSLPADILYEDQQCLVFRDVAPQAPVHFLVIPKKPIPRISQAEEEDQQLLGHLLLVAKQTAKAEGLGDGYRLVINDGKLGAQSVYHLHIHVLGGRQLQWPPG
# T2 sequence (Q9BX68 37-163 limits assumed): as above
# T3 sequence (Q9BX68 37-163 R99A limits assumed): as the sequence (Q9BX68 37-163 limits assumed) above, with R63A counted along it
# T1 sequence (Q9BX68 37-163 R99Q limits assumed): as the sequence (Q9BX68 37-163 limits assumed) above, with R63Q counted along it
# Chain of hHINT1 (P49773 whole entry): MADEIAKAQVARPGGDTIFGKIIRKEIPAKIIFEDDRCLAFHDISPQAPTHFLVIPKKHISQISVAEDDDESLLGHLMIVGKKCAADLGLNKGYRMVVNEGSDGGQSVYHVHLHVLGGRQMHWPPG
# T5 sequence (P49773 whole entry Q62R): as the sequence (P49773 whole entry) above, with Q62R counted along it
# T4 sequence (P49773 whole entry Q62A): as the sequence (P49773 whole entry) above, with Q62A counted along it
smiles,measurement,setting,value
O=C(CCc1c[nH]c2ccccc12)NS(=O)(=O)OC[C@H]1O[C@@H](n2cnc3c2ncn2ccnc32)[C@H](O)[C@@H]1O [Inhibitor 1],Kd,hHINT2 R99Q [1],6.94 ± 0.51 µM
same,-TΔS,"hHINT2 R99Q [1]; ITC 25 °C, pH 7.2, hHINT2 R99Q",7.68 ± 0.55 kcal/mol
same,n (binding stoichiometry),"hHINT2 R99Q [1]; ITC 25 °C, pH 7.2, hHINT2 R99Q",1.1
same,ΔH,"hHINT2 R99Q [1]; ITC 25 °C, pH 7.2, hHINT2 R99Q",-14.72 ± 0.10 kcal/mol
same,Kd,hHINT2 WT [2],9.43 ± 0.45 µM
same,ΔH,"hHINT2 WT [2]; ITC 25 °C, 10 mM Tris, 150 mM NaCl, pH 7.2, hHINT2 WT",-10.54 ± 0.16 kcal/mol
same,-TΔS,"hHINT2 WT [2]; ITC 25 °C, pH 7.2, hHINT2 WT",3.69 ± 0.17 kcal/mol
same,n (binding stoichiometry),"hHINT2 WT [2]; ITC 25 °C, pH 7.2, hHINT2 WT",0.80
same,ΔG,"hHINT2 WT [2]; ITC 25 °C, pH 7.2, hHINT2 WT",-6.84 ± 0.32 kcal/mol
same,-TΔS,hHINT1 WT [3],8.19 ± 0.13 kcal/mol
"Nc1ncnc2c1ncn2[C@@H]1O[C@H](COP(=O)(O)NCCc2c[nH]c3ccccc23)[C@@H](O)[C@H]1O [TpAd, adenosine tryptamine phosphoramidate monoester]",Kd,hHINT2 R99Q [4],5.45 ± 0.6 µM
same,KD R99Q/WT Ratio,"hHINT2 R99Q [4]; burst phase 4 °C, hHINT2",1.00
same,k2 R99Q/WT Ratio,"hHINT2 R99Q [4]; burst phase 4 °C, hHINT2",1.04
same,k2 (adenylation rate constant),"hHINT2 R99Q [4]; burst phase 4 °C, hHINT2 R99Q",93.2 ± 5.0 s⁻¹
same,Km R99Q/WT Ratio,hHINT2 R99Q [5],0.92
same,kcat R99Q/WT Ratio,hHINT2 R99Q [5],1.04
same,kcat/Km R99Q/WT Ratio,hHINT2 R99Q [5],1.18
same,kon,hHINT1; [15],> 9.5e+06 M⁻¹ s⁻¹
same,koff,hHINT1; [16],> 60 s⁻¹
same,"k2, E•TpAd ⇆ E-NMP•Tp",hHINT1; [17],56.5 ± 2.5 s⁻¹
same,"k3, E-NMP•Tp ⇆ E-NMP + Tp",hHINT1; [17],>2000 s⁻¹
same,"k−2, E•TpAd ⇆ E-NMP•Tp",hHINT1; [17],0
same,"k−3, E-NMP•Tp ⇆ E-NMP + Tp",hHINT1; [17],0
same,"k−4, E-NMP + H20 ⇆ E’-NMP",hHINT1; [17],0
same,"k−5, E’-NMP ⇆ E + NMP",hHINT1; [17],0
same,"k4, E-NMP + H20 ⇆ E’-NMP",hHINT1; [18],0.41 ± 0.03 s⁻¹
same,"k5, E’-NMP ⇆ E + NMP",hHINT1; [18],>100 s⁻¹
same,fluorescence of bound TpAd relative to unquenched tryptamine,"hHINT2; TpAd bound to hHINT2, constraint giving excellent simulations",~ 75%
same,kon,hHINT2; [15],> 5e+07 M⁻¹ s⁻¹
same,koff,hHINT2; [16],> 60 s⁻¹
same,"k2, E•TpAd ⇆ E-NMP•Tp",hHINT2; [19],60.8 ± 2.5 s⁻¹
same,"k3, E-NMP•Tp ⇆ E-NMP + Tp",hHINT2; [19],>1640 s⁻¹
same,"k−2, E•TpAd ⇆ E-NMP•Tp",hHINT2; [19],0
same,"k−3, E-NMP•Tp ⇆ E-NMP + Tp",hHINT2; [19],0
same,"k−4, E-NMP + H20 ⇆ E’-NMP",hHINT2; [19],0
same,"k−5, E’-NMP ⇆ E + NMP",hHINT2; [19],0
same,"k4, E-NMP + H20 ⇆ E’-NMP",hHINT2; [20],1.34 s^−1 ± 0.14 s^−1
same,"k5, E’-NMP ⇆ E + NMP",hHINT2; [20],>34 s⁻¹
same,Km,hHINT1 WT [6],0.13 ± 0.02 µM
same,kcat,hHINT1 WT [6]; substrate turnover,2.1 ± 0.1 s⁻¹
same,"decrease in steady-state turnover, hHINT2 R99A vs wild-type",hHINT2 R99A [7]; steady-state,2 fold
same,Km R99A/WT Ratio,"hHINT2 R99A [7]; steady-state 25 °C, hHINT2",0.75
same,kcat R99A/WT Ratio,"hHINT2 R99A [7]; steady-state 25 °C, hHINT2",0.46
same,kcat/Km R99A/WT Ratio,"hHINT2 R99A [7]; steady-state 25 °C, hHINT2",0.65
same,k2 (adenylation rate constant),hHINT1 WT [8]; burst phase 25 °C,203 s⁻¹ and 203 ± 13 s⁻¹
same,Kd,"hHINT1 WT [8]; read-out: KD (substrate binding), burst phase 25 °C",13 ± 2 µM
same,Kd,hHINT2 WT [9],5.44 ± 0.58 µM
same,k2 (adenylation rate constant),"hHINT2 WT [9]; burst phase 4 °C, hHINT2 WT",89.7 s⁻¹ and 89.7 ± 5.1 s⁻¹
same,"kcat decrease, hHINT1 Q62A vs wild-type",hHINT1 Q62A [10]; steady-state,5 fold
same,Km Q62A/WT Ratio,"hHINT1 Q62A [10]; steady-state 25 °C, hHINT1",0.12
same,kcat Q62A/WT Ratio,"hHINT1 Q62A [10]; steady-state 25 °C, hHINT1",0.21
same,kcat/Km Q62A/WT Ratio,"hHINT1 Q62A [10]; steady-state 25 °C, hHINT1",1.87
same,Kd,hHINT2 R99A [11],6 ± 0.47 µM
same,KD R99A/WT Ratio,"hHINT2 R99A [11]; burst phase 4 °C, hHINT2",1.10
same,k2 R99A/WT Ratio,"hHINT2 R99A [11]; burst phase 4 °C, hHINT2",0.96
same,k2 (adenylation rate constant),"hHINT2 R99A [11]; burst phase 4 °C, hHINT2 R99A",86.4 ± 6.1 s⁻¹
same,Kd,hHINT1 Q62R [12],2.9 ± 0.2 µM
same,KD Q62R/WT Ratio,"hHINT1 Q62R [12]; burst phase 25 °C, hHINT1",0.2
same,k2 Q62R/WT Ratio,"hHINT1 Q62R [12]; burst phase 25 °C, hHINT1",0.89
same,k2 (adenylation rate constant),"hHINT1 Q62R [12]; burst phase 25 °C, hHINT1 Q62R",180 ± 9 s⁻¹
same,kcat Q62R/WT Ratio,hHINT1 Q62R [13],0.67
same,kcat/Km Q62R/WT Ratio,hHINT1 Q62R [13],0.73
same,Kd,hHINT1 Q62A [14],4.9 ± 0.5 µM
same,k2 Q62A/WT Ratio,"hHINT1 Q62A [14]; burst phase 25 °C, hHINT1",0.85
same,k2 (adenylation rate constant),"hHINT1 Q62A [14]; burst phase 25 °C, hHINT1 Q62A",172 ± 6 s⁻¹
